Assay results reported in US6656921B1, “Use of zinc hyaluronate against peptic ulcer” (Richter Gedeon Vegyeszeti Gyar RT., priority 1997, dated 2003).
Marks after values point to notes of the source that are not given here.

Columns and labels:
Type in all cases: in vivo, rat
[1] = test system: acidified ethanol induced gastric lesion; assay: Inhibition of acidified-ethanol induced gastric lesions; conditions: for Inhibition / Lesion length/stomach mm ± S.E.M. / Lesion length/stomach: 30 min before acidified ethanol; for ED50 (dose giving 50% decrease in ulcer index): p.o., 30 min pretreatment
Experimental: Female RG-Wistar rats weighing between 120-150 g were used. Before experiments animals were fasted for 24 hours but received water ad libitum.
Experiments were carried out according to the technique similar to that described by A. Robert [Gastroenterology 77, […] (1979)].
Acidified ethanol (mixture of 50 ml of abs. ethanol and 1 ml of concentrated HCI) was used as strong irritants. Dose of acidified ethanol was 0.5 ml/100 g body weight with intragastric administration. Test compounds were given orally 30 minutes before the acidified ethanol challenge. When the duration of action of test compound was studied test material was administered 60 or 120 minutes earlier to the irritating effect induced by acidified-ethanol effect. One hour after the acidified ethanol treatment rats were sacrificed by cervical dislocation. Stomachs were removed and opened along the greater curvature and mildly washed down. The longitudinal hemorrhagic lesions were assayed by length.
ED50 value was defined as the dose that gave a 50% decrease in ulcer index.

[2] = test system: indomethacin induced gastric lesion; assay: Inhibition of indomethacin induced gastric lesion; conditions: for Protection of gastric mucosa against indomethacin (in words): rat, in vivo
Experimental: 2. Inhibition of Indomethacin Induced Gastric Lesion Female RG Wistar rats weighing between 120-150 g were used. Before the experiments animals were fasted for 24 hours but received water ad libitum. Test compounds were given orally, 30 minutes later the animals were treated subcutaneously with indomethacin at a dose of 40 mg/kg. Four hours after the irritating indomethacin administration the animals were killed by cervical dislocation. The stomachs were removed, opened along the greater curvature and the hemorrhagic lesions were counted on the glandular stomach.
ED50 value represents the dose which protects the stomach by 50 % from the damaging effect of indomethacin.

[3] = test system: stress-induced gastric lesion; assay: Inhibition of stress (cold-restraint) induced gastric lesions; conditions: for Lesion score/stomach ± S.E.M.: 30 min before cold-restraint stress, score 0-3; for Inhibition: 30 min before stress; for Protection against cold-restraint induced gastric damage (in words): rat, in vivo
Experimental: Female RG Wistar rats weighing between 120-150 g were used. Before the experiments animals were fasted for 24 hours but received water ad libitum. Experiments were carried out according to the technique similar to that described by Senay et al., (1967). [Proc. Soc. Exp. Biol. Med.124,1221, (1967)].
Test compounds were given orally. 30 minutes later the animals were immobilized in plastic restraint boxes then placed into a refrigerator at 4° C.-8° C. temperature. Four hours later the animals were removed from both the refrigerator and the restraint boxes and one hour later they were sacrificed by cervical dislocation. The stomachs were removed, opened along the greater curvature and hemorrhagic lesions were scored by a zero to 3 scale: stomachs free from any damage were given a score of 0, stomachs with only a few hemorrhagic lesion were given a score of 1, stomachs with more lesion numbers than 10 were given a score of 2, and stomachs with a lot of lesions were characterized with a score of 3.
The ED50 were defined as the dose needed to decrease the score of gastric lesions by 50%.

[4] = test system: platelet activating factor (PAF) induced gastric lesion; assay: Inhibition of gastric damage induced by platelet activating factor (PAF)
Experimental: Male, RG-Wistar rats weighing between 200-250 g were used. Before the experiments animals were fasted for 24 hours but received water ad libitum. Experiments were carried out according to the technique similar to that described by Wallace and Whittle (1986). [Br.J.Pharmac., 89,415, (1986)]. Animals were anaesthetized by intraperitoneal administration of urethane at a dose of 1 g/kg in a volume of 10 ml/kg. Femoral vein was then prepared and cannulated for administration of ulcerogenic PAF. After the surgery PAF was infused intravenously at a rate of 0.1 ml/min for ten minutes at a dose of 200 ng/kg/min. Test compounds were given 30 minutes before the PAF challenge. One hour after the infusion of PAF animals were sacrificed by cervical dislocation; their stomachs were removed and opened along the greater curvature. The hemorrhagic erosions were evaluated by a zero to three scoring system.

[5] = test system: acidified ethanol induced gastric damage; assay: Effect of L-NAME (endogenous NO) on protection against acidified-ethanol induced gastric damage
Experimental: To study the mechanism of action of the compound to be tested, the involvement of endogenous NO in the development of acidified-ethanol induced gastric damage was also studied by intraperitoneal administration of L-N^G-nitroarginine methyl ester (L-NAME). L-NAME at a dose of 25 mg/kg was injected 15 minutes before the test compound. In subsequent experiments the test compound (p.o.), L-NAME (25 mg/kg i.p.), L-arginine (400 mg/kg i.v.) were administered 30, 45 or 60 minutes before oral administration of acidified-ethanol.
The connection between the cytoprotective effect of zinc hyaluronate and endogenic NO was studied by using an inhibitor of the nitrogen(II) oxide biosynthesis namely, N^G-nitro-L-arginine methyl ester (L-NAME). Considering that zinc hyaluronate(II) and zinc hyaluronate(M) had shown the same activity in acidified ethanol test, the latter was the only one tested in this experiment.

[6] = test system: acetic acid induced chronic gastric ulcer; assay: Inhibition of acetic acid induced chronic gastric ulcer; conditions: for Ulcerated area mm^2 ± S.E.M.: 1.0 mg/kg p.o. once a day, day 5 to 14 after surgery; for Effect on healing of acetic acid induced chronic ulcer (in words): rat, in vivo
Experimental: Female, RG Wistar rats weighing between 120-150 g were used. Before the surgery animals were deprived of food for 24 hours but received water ad libitum. The chronic gastric ulcer was induced by the injection of 25 μl/animal of 20% (v/v) acetic acid into the gastric wall under light ether anaesthesia according to the method similar to that described by Takagi et al. (1969). The oral treatment with the test compounds was started five days after the surgery and continued in a once-a-day regimen up to the 14th day. The animals were killed on the 15th day and their stomachs were dissected. The severity of ulceration was evaluated by the measurement of the diameter of the ulcers and the area affected was calculated. The healing effect was expressed as differences in percentage between the control and test group values.

[7] = test system: gastrointestinal motility; assay: Gastrointestinal motility in the charcoal propulsion test; conditions: 100 mg/kg p.o.; for Propulsion of charcoal suspension mm ± S.E.M.: 30 min before charcoal, 60 min after charcoal
Experimental: Experiments were performed on female, RG-Wistar rats weighing 120-140 g, which were fasted for 24 hours but received water ad libitum.
The experimental procedure was carried out according to the technique similar to that described of P. A. Janssen and A. J. Jageneau [J. Pharm. Pharmacel. 9, 381 (1957)].
Test compounds were given orally at a dose of 100 mg/kg. Control animals received physiological saline solution instead of test compounds. 30 minutes later, the 5% (w/v) charcoal suspension was administered orally at a volume of 0.5 ml/animal. 60 minutes after the charcoal treatment the animals were sacrificed by cervical dislocation. The intestine from pylorus to cecum was removed, its lengths measured along with the distance traversed by the charcoal meal.
Motility was expressed as the ratio of length of charcoal suspension to the length of the whole intestine.

[8] = 100 mg/kg p.o., 30 min before indomethacin
[9] = 100 mg/kg p.o., 30 min before indomethacin 40 mg/kg s.c.
[10] = L-NAME + zinc chloride, 25 + 25 mg/kg
[11] = Vehicle + zinc chloride, 0 + 25 mg/kg
[12] = 25 mg/kg p.o., 30 min before indomethacin
[13] = 1.0 mg/kg p.o., 30 min before indomethacin
[14] = 1.0 mg/kg p.o., 30 min before indomethacin 40 mg/kg s.c.
[15] = 10.0 mg/kg p.o., 30 min before indomethacin
[16] = 10.0 mg/kg p.o., 30 min before indomethacin 40 mg/kg s.c.
[17] = listed as Zink-hyaluronate (III)

| Molecule | Inhibition ([1]; 50 mg/kg p.o.) [%] | Lesion length/stomach mm ± S.E.M. ([1]; 50 mg/kg p.o.) [mm] | Inhibition ([1]; 100 mg/kg p.o.) [%] | Lesion length/stomach mm ± S.E.M. ([1]; 100 mg/kg p.o.) [mm] | Inhibition [2, 8] [%] | Lesion number/stomach ± S.E.M. [2, 9] | Protection of gastric mucosa against indomethacin (in words) [2] | Protection against cold-restraint induced gastric damage (in words) [3] | Inhibition ([1]; 10 mg/kg p.o.) [%] | ED50 (dose giving 50% decrease in ulcer index) [1] [mg/kg] | Inhibition [2, 13] [%] | Lesion number/stomach ± S.E.M. [2, 14] | Inhibition [2, 15] [%] | Lesion number/stomach ± S.E.M. [2, 16] | Ulcerated area mm^2 ± S.E.M. [6] [mm^2] | Effect on healing of acetic acid induced chronic ulcer (in words) [6] | further results |
| --- | --- | --- | --- | --- | --- | --- | --- | --- | --- | --- | --- | --- | --- | --- | --- | --- | --- |
| sodium hyaluronate [reference compound] | 15.6 | 65.7 ± 9.8 | 35.9 | 49.9 ± 6.0 | 36.2 | 14.6 ± 3.3 | do not provide any effect | only slight protective effects |  |  |  |  |  |  |  |  | Inhibition ([1]; 100 mg/kg p.o., listed as sodium hyaluronate): 36%; Lesion score/stomach ± S.E.M. ([3]; 100 mg/kg p.o.): 0.9 ± 0.2; Inhibition ([3]; 100 mg/kg p.o.): 40.0%; Inhibition ([4]; 100 mg/kg p.o., 30 min before PAF): 0%; Lesion score/stomach ± S.E.M. ([4]; 100 mg/kg p.o., 30 min before PAF infusion, score 0-3): 2.6 ± 0.2^a; Protection against ulcerogenic effect of PAF (in words) ([4]; rat, in vivo): did not show such effect |
| [Cl-].[Cl-].[Zn+2] [Zinc chloride, zinc chloride, reference compound] |  |  |  |  |  |  | do not provide any effect | only slight protective effects |  |  |  |  |  |  |  |  | Inhibition ([1]; 3.2 mg/kg p.o.): 43.7%; Lesion length/stomach mm ± S.E.M. ([1]; 3.2 mg/kg p.o.): 29.0 ± 4.0 mm; Inhibition ([1]; 6.4 mg/kg p.o.): 52.0%; Lesion length/stomach mm ± S.E.M. ([1]; 6.4 mg/kg p.o.): 24.7 ± 7.7 mm; Inhibition ([1]; 12.8 mg/kg p.o.): 87.0%; Lesion length/stomach mm ± S.E.M. ([1]; 12.8 mg/kg p.o.): 6.7 ± 1.6 mm; Effect of L-NAME pretreatment on the gastroprotective activity (in words) ([5]; L-NAME 25 mg/kg): not influenced; Inhibition (compared with the vehicle + vehicle group) [5, 10]: 73.2%; Lesion length/stomach mm ± S.E.M. [5, 10]: 19.9 ± 5.5 mm; Inhibition (compared with the vehicle + vehicle group) [5, 11]: 89.2%; Lesion length/stomach mm ± S.E.M. [5, 11]: 8.0 ± 2.6 mm; Inhibition [2, 12]: 0%; Lesion number/stomach ± S.E.M. [2, 12]: 15.1 ± 3.7; Lesion score/stomach ± S.E.M. ([3]; 25 mg/kg p.o.): 0.6 ± 0.2; Inhibition ([3]; 25 mg/kg p.o.): 40.0% |
| zinc hyaluronate [Zinc hyaluronate (III)] | 78.5 | 14.9 ± 4.5 | 85.7 | 9.9 ± 3.5 | 83.7 | 3.0 ± 1.4 |  |  | 0 | 33.2 | 7.6 | 17.0 ± 4.5 | 57.6 | 7.9 ± 2.5 | 6.8 ± 0.8 | Neither zinc hyaluronate(I), nor zinc hyaluronate(III) had any effect | Lesion length/stomach mm ± S.E.M. ([1]; 10 mg/kg p.o.): 98.4 ± 12.7 mm; Inhibition ([1]; 25 mg/kg p.o.): 37.0%; Lesion length/stomach mm ± S.E.M. ([1]; 25 mg/kg p.o.): 43.7 ± 7.7 mm; Propulsion of charcoal suspension mm ± S.E.M. [7, 17]: 68 ± 2.5 mm; Ratio of charcoal suspension to the whole intestinal part [7, 17]: 0.89 ± 0.03 |
| zinc hyaluronate [Zinc hyaluronate (I)] | 66.7 |  | 93.4 |  | 90.4 | 0.8 ± 0.4 |  |  | 35.0 | 15.9 | 43.4 | 4.7 ± 2.1 | 55.4 | 3.7 ± 1.9 | 10.0 ± 2.3 | Neither zinc hyaluronate(I), nor zinc hyaluronate(III) had any effect | Inhibition ([1]; 1 mg/kg p.o.): 0%; Lesion length/stomach ([1]; 1 mg/kg p.o.): 95.3 ± 14.8; Lesion length/stomach ([1]; 10 mg/kg p.o.): 53.6 ± 7.3; Lesion length/stomach ([1]; 50 mg/kg p.o.): 27.4 ± 7.6; Lesion length/stomach ([1]; 100 mg/kg p.o.): 5.4 ± 2.0; Effect on the intestinal motility (in words) [7]: absence of change in activity; Propulsion of charcoal suspension mm ± S.E.M. ([7]; listed as Zink-hyaluronate (I)): 718 ± 5.6 mm; Ratio of charcoal suspension to the whole intestinal part ([7]; listed as Zink-hyaluronate (I)): 0.79 ± 0.07 |
